From patent publication US20250197409A1, “BIFUNCTIONAL COMPOUND AND PHARMACEUTICAL COMPOSITION COMPRISING THE BIFUNCTIONAL COMPOUND, AND METHOD FOR TREATING ANDROGEN RECEPTOR RELATED DISEASE BY USING THE SAME” (ANHORN MEDICINES CO., LTD., priority 2022, published 2025) come the findings set out here.

Read-outs that look alike come from different tables or passages of the source. Where only a bound is given, the exact number is not on record here.

The target of the assay is T1, androgen receptor (Homo sapiens, UniProt P10275, T878A).
T1 construct: host or cells: LNCaP.FGC
The experiment in a line: Androgen receptor degradation assay using Western blot analysis. It is filed as cell-based. In short, it runs like this: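 LNCaP.FGC cells (2×10^5/well) treated with 10-fold serial dilutions in RPMI from 100 nM stock; untreated cells as negative control. AR Western signal normalized to GAPDH, expressed as % remaining versus untreated (100%). DC50 derived from calibration curve of serial dilutions.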

[1] abbreviates: LNCaP.FGC cells, serial 10x dilutions from 100 nM; read-out: AR DC50 (concentration needed for 50% AR degradation).
[2] abbreviates: 24 h, LNCaP.FGC cells, 100 nM, 24 hr, normalized to GAPDH, untreated cells = 100%; read-out: Androgen Receptor Remaining (%).
Where [3] appears, read: read-out: AR DC50 (concentration needed for 50% AR degradation); LNCaP.FGC cells, serial 10x dilutions from 100 nM.
[4] abbreviates: LNCaP.FGC cells, 100 nM, 24 hr, normalized to GAPDH, untreated cells = 100%.
The mark [5] stands for this setting: 24 h, read-out: Androgen Receptor Remaining (%), LNCaP.FGC cells, 100 nM, 24 hr, normalized to GAPDH, untreated cells = 100%.

T1 sequence (P10275 whole entry T878A): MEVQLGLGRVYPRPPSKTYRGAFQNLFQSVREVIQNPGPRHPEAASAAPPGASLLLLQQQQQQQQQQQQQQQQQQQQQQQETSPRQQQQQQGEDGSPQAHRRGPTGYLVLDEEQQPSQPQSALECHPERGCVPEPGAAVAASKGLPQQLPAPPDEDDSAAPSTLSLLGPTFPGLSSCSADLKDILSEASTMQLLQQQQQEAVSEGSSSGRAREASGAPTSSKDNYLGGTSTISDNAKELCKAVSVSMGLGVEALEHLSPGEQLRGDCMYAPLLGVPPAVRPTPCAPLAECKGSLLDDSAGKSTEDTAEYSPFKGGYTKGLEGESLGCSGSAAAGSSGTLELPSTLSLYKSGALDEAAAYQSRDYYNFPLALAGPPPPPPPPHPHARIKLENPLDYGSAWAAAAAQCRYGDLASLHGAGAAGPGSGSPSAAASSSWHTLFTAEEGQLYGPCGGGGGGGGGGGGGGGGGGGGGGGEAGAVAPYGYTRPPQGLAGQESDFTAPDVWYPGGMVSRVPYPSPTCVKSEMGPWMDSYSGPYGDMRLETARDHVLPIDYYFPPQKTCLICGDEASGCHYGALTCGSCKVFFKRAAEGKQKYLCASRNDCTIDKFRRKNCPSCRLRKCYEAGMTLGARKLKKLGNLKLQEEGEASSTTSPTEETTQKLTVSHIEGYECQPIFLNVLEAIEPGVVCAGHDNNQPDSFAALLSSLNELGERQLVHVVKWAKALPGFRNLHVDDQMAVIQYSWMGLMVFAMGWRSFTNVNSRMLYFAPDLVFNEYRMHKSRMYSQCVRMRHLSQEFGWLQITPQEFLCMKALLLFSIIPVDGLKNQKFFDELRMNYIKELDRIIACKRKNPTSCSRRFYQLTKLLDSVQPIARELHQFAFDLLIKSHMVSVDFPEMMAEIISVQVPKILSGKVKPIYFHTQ
T1 sequence (Q96SW2 whole entry partner): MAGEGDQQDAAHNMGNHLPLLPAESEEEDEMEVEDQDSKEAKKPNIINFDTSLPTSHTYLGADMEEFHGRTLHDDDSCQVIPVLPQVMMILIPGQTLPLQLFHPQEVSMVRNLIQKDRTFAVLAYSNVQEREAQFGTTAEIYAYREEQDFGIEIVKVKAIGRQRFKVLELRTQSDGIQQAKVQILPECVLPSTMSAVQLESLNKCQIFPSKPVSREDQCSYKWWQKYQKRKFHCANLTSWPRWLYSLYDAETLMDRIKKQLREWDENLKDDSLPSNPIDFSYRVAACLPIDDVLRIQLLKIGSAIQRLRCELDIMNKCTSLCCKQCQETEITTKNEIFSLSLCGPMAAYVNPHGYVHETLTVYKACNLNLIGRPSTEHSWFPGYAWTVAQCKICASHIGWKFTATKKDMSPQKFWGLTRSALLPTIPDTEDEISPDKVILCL

Take `Cn1c2c(c3ccc(OCCCN4CC=C(c5ccc(C(=O)N[C@H]6CC[C@H](Oc7ccc(C#N)c(Cl)c7)CC6)nn5)CC4)cc31)C(=O)N(C1CCC(=O)NC1=O)C2=O` (stereo partly drawn) [Compound 196]: the DC50 under setting [1] was less than 0.01 µM.
With `Cn1c2c(c3cc(OCCN4CCN(c5ccc(C(=O)N[C@H]6C(C)(C)[C@H](Oc7ccc(C#N)c(Cl)c7)C6(C)C)cn5)CC4)ccc31)C(=O)N(C1CCC(=O)NC1=O)C2=O` (stereo partly drawn) [Compound 19], under setting [2], the remaining activity at 0.1 µM was determined as 73%.
Turning to `CCn1c2c(c3ccc(OC4CCN(CC5CN(c6ccc(C(=O)N[C@H]7CC[C@H](Oc8ccc(C#N)c(Cl)c8)CC7)nn6)C5)CC4)cc31)C(=O)N(C1CCC(=O)NC1=O)C2=O` (stereo partly drawn) [Compound 210], the DC50 under setting [3] was in the range of 0.01 to 0.025 µM.
`CC1(C)[C@H](NC(=O)c2ccc(N3CCN(CCOc4ccc5c6c(sc5c4)C(=O)N(C4CCC(=O)NC4=O)C6=O)CC3)cn2)C(C)(C)[C@H]1Oc1ccc(C#N)c(Cl)c1` (stereo partly drawn) [Compound 7]: the “Androgen Receptor Remaining (%)” value under setting [4] is 45%. Further, the DC50 under setting [1] was in the range of 0.025 to 0.1 µM.
`CCn1c2c(c3ccc(OCCN4CCCN(c5ccc(C(=O)N[C@H]6CC[C@H](N(C)c7ccc(C#N)c(Cl)c7)CC6)nn5)CC4)cc31)C(=O)N(C1CCC(=O)NC1=O)C2=O` (stereo partly drawn) [Compound 110]: under setting [5], the remaining activity at 0.1 µM stood at 34%. The DC50 under setting [3] lay in the range of 0.01 to 0.025 µM.
Regarding `CCn1c2c(c3ccc(OCCCN4CCN(c5ccc(C(=O)N[C@H]6CC[C@H](Oc7ccc(C#N)c(Cl)c7)CC6)cn5)CC4)cc31)C(=O)N(C1CCC(=O)NC1=O)C2=O` (stereo partly drawn) [Compound 26], the remaining activity at 0.1 µM under setting [5] was 75%.
In the case of `CCn1c2c(c3ccc(OCCCCN4CCN(c5ccc(C(=O)N[C@H]6CC[C@H](N(C)c7ccc(C#N)c(Cl)c7)CC6)nn5)CC4=O)cc31)C(=O)N(C1CCC(=O)NC1=O)C2=O` (stereo partly drawn) [Compound 150], the remaining activity at 0.1 µM under setting [5] is 40%.
Regarding `Cn1c2c(c3cccc(OCCCN4CCN(c5ccc(C(=O)N[C@H]6CC[C@H](Oc7ccc(C#N)c(Cl)c7)CC6)nn5)CC4)c31)C(=O)N(C1CCC(=O)NC1=O)C2=O` (stereo partly drawn) [Compound 43], under setting [2], the remaining activity at 0.1 µM came out at 26%. Further, the DC50 under setting [1] lay in the range of 0.025 to 0.1 µM.
Turning to `CCn1c2c(c3ccc(OCCC4CCN(c5ccc(C(=O)N[C@H]6CC[C@H](Oc7ccc(C#N)c(Cl)c7)CC6)nn5)CC4)cc31)C(=O)N(C1CCC(=O)NC1=O)C2=O` (stereo partly drawn) [Compound 2], the remaining activity at 0.1 µM under setting [5] was 56%.
In the case of `CCn1c2c(c3ccc(OCCN4CCN(c5ccc(N6C(=S)N(c7ccc(C#N)c(C(F)(F)F)c7)C(=O)C6(C)C)cc5)CC4)cc31)C(=O)N(C1CCC(=O)NC1=O)C2=O` (stereo not drawn) [Compound 118], under setting [5], the remaining activity at 0.1 µM was 80%.
Take `CCn1c2c(c3ccc(OCC(=O)N4CCC5(CCN(c6ccc(C(=O)N[C@H]7CC[C@H](Oc8ccc(C#N)c(Cl)c8)CC7)nn6)C5)C4)cc31)C(=O)N(C1CCC(=O)NC1=O)C2=O` (stereo partly drawn) [Compound 136]: the remaining activity at 0.1 µM under setting [5] was found to be 17%. Moreover, the DC50 under setting [3] was in the range of 0.025 to 0.1 µM.
For `Cn1c2c(c3ccc(OCCN4CCN(c5ccc(C(=O)N[C@H]6C(C)(C)[C@H](Oc7ccc(C#N)c(Cl)c7)C6(C)C)cc5)CC4)cc31)C(=O)N(C1CCC(=O)NC1=O)C2=O` (stereo partly drawn) [Compound 1], the remaining activity at 0.1 µM under setting [2] stood at 47%. For the same compound, under setting [1], the DC50 fell in the range of 0.01 to 0.025 µM.
For `CCn1c2c(c3ccc(OCCOC4CC5(CCN(c6ccc(C(=O)N[C@H]7CC[C@H](Oc8ccc(C#N)c(Cl)c8)CC7)nn6)C5)C4)cc31)C(=O)N(C1CCC(=O)NC1=O)C2=O` (stereo partly drawn) [Compound 162], the remaining activity at 0.1 µM under setting [5] amounted to 29%. Also, the DC50 under setting [3] lay in the range of 0.025 to 0.1 µM.
In the case of `CC[C@H]1CN(CCOc2ccc3c4c(n(CC)c3c2)C(=O)N(C2CCC(=O)NC2=O)C4=O)CCN1c1ccc(C(=O)N[C@H]2CC[C@H](Oc3ccc(C#N)c(Cl)c3)CC2)nn1` (stereo partly drawn) [Compound 58], under setting [5], the remaining activity at 0.1 µM was found to be 65%.
`Cn1c2c(c3ccc(NC(=O)CN4CCN(c5ccc(C(=O)N[C@H]6CC[C@H](Oc7ccc(C#N)c(Cl)c7)CC6)cn5)CC4)cc31)C(=O)N(C1CCC(=O)NC1=O)C2=O` (stereo partly drawn) [Compound 66]: under setting [2], the remaining activity at 0.1 µM was determined as 100%.
Take `CCn1c2c(c3ccc(OCCCCN4C5CCC4CN(c4ccc(C(=O)N[C@H]6CC[C@H](Oc7ccc(C#N)c(Cl)c7)CC6)nn4)C5)cc31)C(=O)N(C1CCC(=O)NC1=O)C2=O` (stereo partly drawn) [Compound 100]: the remaining activity at 0.1 µM under setting [5] was 44%. Moreover, the DC50 under setting [3] lay in the range of 0.025 to 0.1 µM.
Consider `CCn1c2c(c3ccc(OCCCN4CCCN(c5ccc(C(=O)N[C@H]6C(C)(C)[C@H](Oc7ccc(C#N)c(Cl)c7)C6(C)C)nn5)CC4)cc31)C(=O)N(C1CCC(=O)NC1=O)C2=O` (stereo partly drawn) [Compound 54], for which the remaining activity at 0.1 µM under setting [5] is 72%.
On to `CCn1c2c(c3ccc(OCCCN4CC5(CCN(c6ccc(C(=O)N[C@H]7CC[C@H](Oc8ccc(C#N)c(Cl)c8)CC7)nn6)CC5)C4)cc31)C(=O)N(C1CCC(=O)NC1=O)C2=O` (stereo partly drawn) [Compound 72], for which the “Androgen Receptor Remaining (%)” value under setting [4] was 26%. Besides, the DC50 under setting [3] is less than 0.01 µM.
Regarding `CCn1c2c(c3ccc(OCCCCN4CCCN(c5ccc(C(=O)N[C@H]6CC[C@H](Oc7ccc(C#N)c(Cl)c7)CC6)nn5)CC4)cc31)C(=O)N(C1CCC(=O)NC1=O)C2=O` (stereo partly drawn) [Compound 90], the remaining activity at 0.1 µM under setting [5] came out at 28%. For the same compound, under setting [3], the DC50 fell in the range of 0.025 to 0.1 µM.
With `CCn1c2c(c3ccc(OCCOC4CCN(c5ccc(C(=O)N[C@H]6CC[C@H](N(C)c7ccc(C#N)c(Cl)c7)CC6)nn5)CC4)cc31)C(=O)N(C1CCC(=O)NC1=O)C2=O` (stereo partly drawn) [Compound 154], the remaining activity at 0.1 µM under setting [5] was found to be 33%. Moreover, the DC50 under setting [3] is 0.01 to 0.025 µM.
Turning to `Cn1c2c(c3ccc(OCCCOC4CC5(CCN(c6ccc(C(=O)N[C@H]7CC[C@H](Oc8ccc(C#N)c(Cl)c8)CC7)nn6)C5)C4)cc31)C(=O)N(C1CCC(=O)NC1=O)C2=O` (stereo partly drawn) [Compound 179], the DC50 under setting [1] lay within 0.025 to 0.1 µM.
On to `CCn1c2c(c3ccc(OCCCN4CCN(c5ccc(C(=O)N[C@H]6CC[C@H](N(C)c7ccc(C#N)c(Cl)c7)CC6)nn5)CC4)cc31)C(=O)N(C1CCC(=O)NC1=O)C2=O` (stereo partly drawn) [Compound 78], for which the remaining activity at 0.1 µM under setting [5] amounted to 57%. The DC50 under setting [3] was 0.01 to 0.025 µM.
With `CCn1c2c(c3ccc(OCCCN4CCCN(c5ccc(C(=O)N[C@H]6CC[C@H](Oc7ccc(C#N)c(Cl)c7)CC6)nn5)CC4)cc31)C(=O)N(C1CCC(=O)NC1=O)C2=O` (stereo partly drawn) [Compound 46], under setting [5], the remaining activity at 0.1 µM was determined as 20%. The DC50 under setting [3] is 0.01 to 0.025 µM.
Turning to `CCn1c2c(c3ccc(NC(=O)CN4CCN(c5ccc(C(=O)N[C@H]6C(C)(C)[C@H](Oc7ccc(C#N)c(Cl)c7)C6(C)C)cn5)CC4)cc31)C(=O)N(C1CCC(=O)NC1=O)C2=O` (stereo partly drawn) [Compound 56], under setting [5], the remaining activity at 0.1 µM is 4%. The DC50 under setting [3] is 0.025 to 0.1 µM.
With `CCn1c2c(c3ccc(OCC(=O)N4CCN(c5ccc(C(=O)N[C@H]6CC[C@H](N(C)c7ccc(C#N)c(Cl)c7)CC6)nn5)CC4)cc31)C(=O)N(C1CCC(=O)NC1=O)C2=O` (stereo partly drawn) [Compound 125], the remaining activity at 0.1 µM under setting [5] came to 57%.
For the compound `CCn1c2c(c3ccc(OCCN4CC5CCC(C4)N5c4ccc(C(=O)N[C@H]5CC[C@H](Oc6ccc(C#N)c(Cl)c6)CC5)nn4)cc31)C(=O)N(C1CCC(=O)NC1=O)C2=O` (stereo partly drawn) [Compound 70], under setting [5], the remaining activity at 0.1 µM stood at 62%.
As for `Cn1c2c(c3ccc(OCCOC4CC5(CCN(c6ccc(C(=O)N[C@H]7CC[C@H](Oc8ccc(C#N)c(Cl)c8)CC7)nn6)C5)C4)cc31)C(=O)N(C1CCC(=O)NC1=O)C2=O` (stereo partly drawn) [Compound 174], the DC50 under setting [1] lay in the range of 0.025 to 0.1 µM.
Consider `CCn1c2c(c3ccc(OCCN4CC=C(c5ccc(C(=O)N[C@H]6CC[C@H](N(C)c7ccc(C#N)c(Cl)c7)CC6)nn5)CC4)cc31)C(=O)N(C1CCC(=O)NC1=O)C2=O` (stereo partly drawn) [Compound 202], for which, under setting [3], the DC50 is 0.025 to 0.1 µM.
As to `CCn1c2c(c3ccc(OCC(C)CN4CCN(c5ccc(C(=O)N[C@H]6CC[C@H](Oc7ccc(C#N)c(Cl)c7)CC6)nn5)CC4)cc31)C(=O)N(C1CCC(=O)NC1=O)C2=O` (stereo partly drawn) [Compound 192], the DC50 under setting [3] is 0.025 to 0.1 µM.
Regarding `Cn1c2c(c3ccc(OCCN4CCC(c5ccc(C(=O)N[C@H]6CC[C@H](Oc7ccc(C#N)c(Cl)c7)CC6)nn5)CC4)cc31)C(=O)N(C1CCC(=O)NC1=O)C2=O` (stereo partly drawn) [Compound 208], the DC50 under setting [1] was in the range of 0.01 to 0.025 µM.
With `CCn1c2c(c3ccc(OCCCN4[C@H](C)CN(c5ccc(C(=O)N[C@H]6CC[C@H](Oc7ccc(C#N)c(Cl)c7)CC6)nn5)C[C@@H]4C)cc31)C(=O)N(C1CCC(=O)NC1=O)C2=O` (stereo partly drawn) [Compound 76], the remaining activity at 0.1 µM under setting [5] stood at 78%.
Regarding `CCn1c2c(c3ccc(OCCCOC4CCN(c5ccc(C(=O)N[C@H]6CC[C@H](N(C)c7ccc(C#N)c(Cl)c7)CC6)nn5)CC4)cc31)C(=O)N(C1CCC(=O)NC1=O)C2=O` (stereo partly drawn) [Compound 155], the remaining activity at 0.1 µM under setting [5] came out at 19%. The DC50 under setting [3] fell in the range of 0.01 to 0.025 µM.
The matching figures for `CCn1c2c(c3ccc(OCC(=O)N4CCN(c5ccc(C(=O)N[C@H]6CC[C@H](Oc7ccc(C#N)c(Cl)c7)CC6)nn5)CC4)cc31)C(=O)N(C1CCC(=O)N(CO)C1=O)C2=O` (stereo partly drawn) [Compound 120]: 48% and 0.025 to 0.1 µM.
The like results for `CCn1c2c(c3ccc(OCC(=O)NCC4CCN(c5ccc(C(=O)N[C@H]6CC[C@H](N(C)c7ccc(C#N)c(Cl)c7)CC6)nn5)CC4)cc31)C(=O)N(C1CCC(=O)NC1=O)C2=O` (stereo partly drawn) [Compound 142] were, in that order, 49% and 0.025 to 0.1 µM.
Consider `CCn1c2c(c3ccc(OCC(=O)N4CCN(c5ccc(C(=O)N[C@H]6CC[C@H](Oc7ccc(C#N)c(Cl)c7)CC6)nn5)CC4)cc31)C(=O)N(C1CCC(=O)NC1=O)C2=O` (stereo partly drawn) [Compound 121], for which the remaining activity at 0.1 µM under setting [5] amounted to 48%. The DC50 under setting [3] fell in the range of 0.025 to 0.1 µM.
The matching figures for `CCn1c2c(c3ccc(OCCCCN4CCN(c5ccc(C(=O)N[C@H]6CC[C@H](Oc7ccc(C#N)c(Cl)c7)CC6)nn5)CC4)cc31)C(=O)N(C1CCC(=O)NC1=O)C2=O` (stereo partly drawn) [Compound 89]: 7% and less than 0.01 µM.
